Values quoted from earlier work as cited in patent US10945968B2, “Memantine transdermal delivery systems” (Corium, Inc., priority 2016, dated 2021).

Details: DRUGBANK Accession No. DB01043

**Q.** Which “Log P reported range” value does the source give for `C[C@]12CC3C[C@](C)(C1)C[C@@](N)(C3)C2` [Memantine, 3,5-dimethyladamantan-1-amine] here?
**A.** 3.31-2.07
